{"source": "patent US20040077881A1", "about": "“$G(d)1-pyrrolines used in pest control” (priority 2001, published 2004)", "data": [{"tested_on": "fruit tree spider mite (Panonychus ulmi)", "test": "Panonychus test", "format": "in vivo", "details": "200 ppm, plum trees sprayed", "protocol": "To produce a suitable preparation of active compound, 1 part by weight of active compound is mixed with the stated amounts of solvent and emulsifier, and the concentrate is diluted with emulsifier-containing water to the desired concentration.\nPlum trees (Prunus domestica) of a height of about 30 cm which are heavily infested by all stages of the fruit tree spider mite (Panonychus ulmi) are sprayed with a preparation of active compound of the desired concentration.\nAfter the desired period of time, the effect in % is determined. 100% means that all spider mites have been killed; 0% means that none of the spider mites have been killed.", "units": {"Kill rate in % after 14 d": "%"}, "values": [{"smiles": "O=S(=O)(Oc1ccc(-c2ccc([C@H]3C[C@H](Cl)C(c4c(F)cccc4F)=N3)cc2)cc1)C(F)(F)F", "note": "[drawing 55]", "Kill rate in % after 14 d": 100}]}, {"tested_on": "Amblyomma variegatum or A. hebraeum, nymphs which have sucked themselves full", "test": "Nymph ecdysis test on polyphagous ticks", "format": "in vivo", "details": "100 ppm; nymphs immersed for 1 minute; assessed after 4 to 6 weeks", "protocol": "[table] 20 mg of active compound are dissolved in 1 ml of dimethyl sulphoxide, more dilute concentrations are prepared by dilution with dist. H2O. 10 nymphs which have sucked themselves full are immersed for 1 minute into the preparation of active compound to be tested. The animals are transferred to petri dishes (Ø0 9.5 cm) fitted with filter discs and covered. After the nymphs have remained in a controlled-environment cabinet for 4 to 6 weeks, the effect on ecdysis is determined. 100% means that none of the animals have undergone normal ecdysis. 0% means that all animals have undergone ecdysis.", "units": {"Effect on ecdysis in %": "%"}, "values": [{"smiles": "Fc1cccc(F)c1C1=NC(c2ccc(-c3ccc(OC(F)(F)F)cc3)cc2)CC1(Cl)Cl", "note": "(stereo not shown) [drawing 87]", "Effect on ecdysis in %": 100}, {"smiles": "Fc1cccc(F)c1C1=N[C@@H](c2ccc(-c3ccc(OC(F)(F)F)cc3)cc2)CC1(Cl)Cl", "note": "[drawing 88]", "Effect on ecdysis in %": 100}, {"smiles": "O=S(=O)(Oc1ccc(-c2ccc([C@H]3C[C@H](Cl)C(c4c(F)cccc4F)=N3)cc2)cc1)C(F)(F)F", "note": "[drawing 89]", "Effect on ecdysis in %": 100}]}, {"tested_on": "caterpillars of the army-worm (Spodoptera exigua)", "test": "Spodoptera exigua test", "format": "in vivo", "details": "1000 ppm, cabbage leaves dipped", "protocol": "(§1) [table] To produce a suitable preparation of active compound, 1 part by weight of active compound is mixed with the stated amounts of solvent and emulsifier, and the concentrate is diluted with emulsifier-containing water to the desired concentration. Cabbage leaves (Brassica oleracea) are treated by being dipped into the preparation of active compound of the desired concentration and are populated with caterpillars of the army-worm (Spodoptera exigua) whilst the leaves are still moist. After the desired period of time, the kill in % is determined. 100% means that all caterpillars have been killed; 0% means that none of the caterpillars have been killed.", "units": {"Kill rate in % after 6 d": "%"}, "values": [{"smiles": "Fc1cccc(F)c1C1=NC(c2ccc(-c3ccc(OC(F)(F)F)cc3)cc2)CC1(Cl)Cl", "note": "(stereo not shown) [drawing 66]", "Kill rate in % after 6 d": 100}, {"smiles": "Fc1cccc(F)c1C1=NC(c2ccc(-c3ccc(OC(F)(F)F)cc3)cc2)CC1Cl", "note": "(stereo not shown) [drawing 67]", "Kill rate in % after 6 d": 100}, {"smiles": "Fc1cccc(F)c1C1=N[C@@H](c2ccc(-c3ccc(OC(F)(F)F)cc3)cc2)CC1(Cl)Cl", "note": "[drawing 68]", "Kill rate in % after 6 d": 100}]}, {"tested_on": "not listed separately", "test": "logP determination by HPLC (EEC directive 79/831 Annex V.A8, reversed-phase C 18)", "format": "physicochemical", "details": "reversed-phase HPLC column (C 18), pH 2.3, HPLC, reversed-phase column (C 18), 43° C., pH 2.3, 0.1% aqueous phosphoric acid/acetonitrile; read-out: log P", "protocol": "The stated logP values were determined in accordance with EEC directive 79/831 Annex V.A8 by HPLC (High Performance Liquid Chromatography) using a reversed-phase column (C 18). Temperature: 43° C. In the acidic range, the determination was carried out at pH 2.3 using the mobile phases 0.1% aqueous phosphoric acid and acetonitrile; linear gradient from 10% acetonitrile to 90% acetonitrile.", "values": [{"smiles": "Fc1cccc(F)c1C1=NC(c2ccc(-c3ccc(OC(F)(F)F)cc3)cc2)CC1(Cl)Cl", "note": "(stereo not shown) [Example 4, 4,4-dichloro-5-(2,6-difluorophenyl)-2-[4′-(trifluoromethoxy)-1,1′-biphenyl-4-yl]-3,4-dihydro-2H-pyrrole]", "chromatographic logP": 5.92}]}, {"tested_on": "not given", "test": "not given", "details": "not given", "units": {"melting point": "°C"}, "values": [{"smiles": "Fc1cccc(F)c1C1=NC(c2ccc(-c3ccc(OC(F)(F)F)cc3)cc2)CC1(Cl)Cl", "note": "(stereo not shown) [Example 4, 4,4-dichloro-5-(2,6-difluorophenyl)-2-[4′-(trifluoromethoxy)-1,1′-biphenyl-4-yl]-3,4-dihydro-2H-pyrrole]", "melting point": "60 to 61"}]}, {"tested_on": "caterpillars of the diamond-back moth (Plutella xylostella)", "test": "Plutella test", "format": "in vivo", "details": "1000 ppm, cabbage leaves dipped", "protocol": "as §1, with “diamond-back moth (Plutella xylostella)” for “army-worm (Spodoptera exigua)”", "units": {"Kill rate in % after 6 d": "%"}, "values": [{"smiles": "Fc1cccc(F)c1C1=NC(c2ccc(-c3ccc(OC(F)(F)F)cc3)cc2)CC1Cl", "note": "(stereo not shown) [drawing 65]", "Kill rate in % after 6 d": 100}]}, {"tested_on": "Heliothis virescens caterpillars", "test": "Heliothis virescens test", "format": "in vivo", "details": "1000 ppm, soyabean shoots dipped", "protocol": "Solvent: 30 parts by weight of dimethylformamide Emulsifier: 1 part by weight of alkylaryl polyglycol ether To produce a suitable preparation of active compound, 1 part by weight of active compound is mixed with the stated amounts of solvent and emulsifier, and the concentrate is diluted with emulsifier-containing water to the desired concentration. Soyabean shoots (Glycine max) are treated by being dipped into the preparation of active compound of the desired concentration and populated with Heliothis virescens caterpillars whilst the leaves are still moist. After the desired period of time, the kill in % is determined. 100% means that all caterpillars have been killed; 0% means that none of the caterpillars have been killed.", "units": {"Kill rate in % after 6 d": "%"}, "values": [{"smiles": "Fc1cccc(F)c1C1=NC(c2ccc(-c3ccc(OC(F)(F)F)cc3)cc2)CC1(Cl)Cl", "note": "(stereo not shown) [drawing 52]", "Kill rate in % after 6 d": 100}, {"smiles": "Fc1cccc(F)c1C1=NC(c2ccc(-c3ccc(OC(F)(F)F)cc3)cc2)CC1Cl", "note": "(stereo not shown) [drawing 53]", "Kill rate in % after 6 d": 100}, {"smiles": "Fc1cccc(F)c1C1=N[C@@H](c2ccc(-c3ccc(OC(F)(F)F)cc3)cc2)CC1(Cl)Cl", "note": "[drawing 54]", "Kill rate in % after 6 d": 100}]}, {"tested_on": "Lucilia cuprina larvae", "test": "Blowfly larvae test / development-inhibitory action", "format": "in vivo", "details": "100 ppm", "protocol": "[table] 20 mg of active compound are dissolved in 1 ml of dimethyl sulphoxide, more dilute concentrations are prepared by dilution with dist. H2O. About 20 Lucilia cuprina larvae are introduced into a test tube which contains about 1 cm^3 of horsemeat and 0.5 ml of the preparation of active compound to be tested. The activity of the preparation of active compound is determined after 24 and 48 hours. The test tubes are transferred into a beaker whose bottom is covered with sand. After a further 2 days, the test tubes are removed and the pupae are counted. The activity of the preparation of active compound is assessed using the number of flies that have hatched after 1.5 times the development period of an untreated control. 100% means that none of the flies have hatched; 0% means that all of the flies have hatched normally.", "units": {"Kill rate in % after 48 h": "%"}, "values": [{"smiles": "Fc1cccc(F)c1C1=NC(c2ccc(-c3ccc(OC(F)(F)F)cc3)cc2)CC1(Cl)Cl", "note": "(stereo not shown) [drawing 84]", "Kill rate in % after 48 h": 100}, {"smiles": "Fc1cccc(F)c1C1=N[C@@H](c2ccc(-c3ccc(OC(F)(F)F)cc3)cc2)CC1(Cl)Cl", "note": "[drawing 85]", "Kill rate in % after 48 h": 100}, {"smiles": "O=S(=O)(Oc1ccc(-c2ccc([C@H]3C[C@H](Cl)C(c4c(F)cccc4F)=N3)cc2)cc1)C(F)(F)F", "note": "[drawing 86]", "Kill rate in % after 48 h": 100}]}, {"tested_on": "greenhouse red spider mite (Tetranychus urticae)", "test": "Tetranychus test (OP-resistant/dip treatment)", "format": "in vivo", "details": "100 ppm, bean plants dipped, OP-resistant", "protocol": "[table] To produce a suitable preparation of active compound, 1 part by weight of active compound is mixed with the stated amounts of solvent and emulsifier, and the concentrate is diluted with emulsifier-containing water to the desired concentration. Bean plants (Phaseolus vulgaris) which are heavily infested by all stages of the greenhouse red spider mite (Tetranychus urticae) are dipped into a preparation of active compound of the desired concentration. After the desired period of time, the effect in % is determined. 100% means that all spider mites have been killed; 0% means that none of the spider mites have been killed.", "units": {"Kill rate in % after 7 d": "%"}, "values": [{"smiles": "Fc1cccc(F)c1C1=NC(c2ccc(-c3ccc(OC(F)(F)F)cc3)cc2)CC1(Cl)Cl", "note": "(stereo not shown) [drawing 76]", "Kill rate in % after 7 d": 98}, {"smiles": "Fc1cccc(F)c1C1=NC(c2ccc(-c3ccc(OC(F)(F)F)cc3)cc2)CC1Cl", "note": "(stereo not shown) [drawing 77]", "Kill rate in % after 7 d": 98}, {"smiles": "Fc1cccc(F)c1C1=N[C@@H](c2ccc(-c3ccc(OC(F)(F)F)cc3)cc2)CC1(Cl)Cl", "note": "[drawing 78]", "Kill rate in % after 7 d": 98}, {"smiles": "Fc1cccc(F)c1C1=N[C@@H](c2ccc(-c3ccc(OC(F)(F)F)cc3)cc2)CC1(Br)Br", "note": "[drawing 79]", "Kill rate in % after 7 d": 98}, {"smiles": "Fc1cccc(F)c1C1=N[C@@H](c2ccc(-c3ccc(OC(F)(F)F)cc3)cc2)C/C1=C\\c1ccc(Br)cc1", "note": "[drawing 80]", "Kill rate in % after 7 d": 98}, {"smiles": "O=S(=O)(Oc1ccc([C@H]2CC(Br)C(c3c(F)cccc3F)=N2)cc1)C(F)(F)F", "note": "(stereo partly shown) [drawing 81]", "Kill rate in % after 7 d": 98}, {"smiles": "O=S(=O)(Oc1ccc([C@H]2CC(Cl)(Cl)C(c3c(F)cccc3F)=N2)cc1)C(F)(F)F", "note": "[drawing 82]", "Kill rate in % after 7 d": 95}, {"smiles": "O=S(=O)(Oc1ccc(-c2ccc([C@H]3C[C@H](Cl)C(c4c(F)cccc4F)=N3)cc2)cc1)C(F)(F)F", "note": "[drawing 83]", "Kill rate in % after 7 d": 98}]}, {"tested_on": "caterpillars of the army-worm (Spodoptera frugiperda)", "test": "Spodoptera frugiperda test", "format": "in vivo", "details": "1000 ppm, cabbage leaves dipped", "protocol": "as §1, with “frugiperda)” for “exigua)”", "units": {"Kill rate in % after 7 d": "%"}, "values": [{"smiles": "Fc1cccc(F)c1C1=NC(c2ccc(-c3ccc(OC(F)(F)F)cc3)cc2)CC1(Cl)Cl", "note": "(stereo not shown) [drawing 69]", "Kill rate in % after 7 d": 100}, {"smiles": "Fc1cccc(F)c1C1=NC(c2ccc(-c3ccc(OC(F)(F)F)cc3)cc2)CC1Cl", "note": "(stereo not shown) [drawing 70]", "Kill rate in % after 7 d": 100}, {"smiles": "Fc1cccc(F)c1C1=N[C@@H](c2ccc(-c3ccc(OC(F)(F)F)cc3)cc2)CC1(Cl)Cl", "note": "[drawing 71]", "Kill rate in % after 7 d": 100}, {"smiles": "Fc1cccc(F)c1C1=N[C@@H](c2ccc(-c3ccc(OC(F)(F)F)cc3)cc2)CC1(Br)Br", "note": "[drawing 72]", "Kill rate in % after 7 d": 100}, {"smiles": "Fc1cccc(F)c1C1=N[C@@H](c2ccc(-c3ccc(OC(F)(F)F)cc3)cc2)C/C1=C\\c1ccc(Br)cc1", "note": "[drawing 73]", "Kill rate in % after 7 d": 100}, {"smiles": "O=S(=O)(Oc1ccc([C@H]2CC(Br)C(c3c(F)cccc3F)=N2)cc1)C(F)(F)F", "note": "(stereo partly shown) [drawing 74]", "Kill rate in % after 7 d": 100}, {"smiles": "O=S(=O)(Oc1ccc(-c2ccc([C@H]3C[C@H](Cl)C(c4c(F)cccc4F)=N3)cc2)cc1)C(F)(F)F", "note": "[drawing 75]", "Kill rate in % after 7 d": 100}]}]}
